These results are taken from publication PMC10518255, “A first-in-class pan-lysyl oxidase inhibitor impairs stromal remodeling and enhances gemcitabine response and survival in pancreatic cancer” (Nature Cancer, 2023).

Values joined by “and” are separate entries in the source; they are usually repeats but may differ in a detail not shown here. Identical values can stand only once.

In one test the test system is Ki67. The experiment in a line: Immunohistochemistry of end-point KPC tumors: proliferating cells. The class given is in vivo, mouse. The note with it: KPC tumors at end point. The protocol: All tissues or matrices, including patient TMAs, were fixed in 10% buffered formalin and embedded in paraffin. The 4-μm sections of samples were deparaffinized with xylene and rehydrated in graded ethanol washes. For immunohistochemistry, Bond Dewax Solution (AR9222) was used. Antigen retrieval was performed using Bond RX H2(30) protocol: HIER 30 min ER1 (citrate pH 6) OR ER2 (EDTA pH 9) at 100 °C. Slides were quenched in BOND Polymer Refine Detection (Leica Biosystems DS9800). […] Slides were digitized on an Aperio slide scanner and representative areas per tumor acquired and analyzed by researchers blinded to the conditions of the experiment.
Extended Data Fig. 6 PXS-5505 in combination with gemcitabine in a KPC model. a. Quantification of proliferating cells (Ki67 positive nuclear staining) in KPC tumors at end point, treated as indicated. 5 fields of view (500 μm × 500 μm) per mouse and 10 mice per cohort were scored. […] Quantification of percent coverage of αSMA positive staining in KPC tumors at end point, treated as indicated. 3 fields of view (1000 μm × 1000 μm) per mouse and 10 mice per cohort were scored. […] Quantification of percent coverage of PDGFR-ß positive staining in KPC tumors at end point, treated as indicated. 3 fields of view (1000 μm × 1000 μm) per mouse and 10 mice per cohort were scored. […] 3 fields of view (500 μm × 500 μm) per mouse and 10 mice per cohort were scored. […]

The target in the next test is T1, Fibroblast LOX (Homo sapiens, UniProt P28300).
T1 construct: endogenous in cells
T1 sequence (P28300 169-417): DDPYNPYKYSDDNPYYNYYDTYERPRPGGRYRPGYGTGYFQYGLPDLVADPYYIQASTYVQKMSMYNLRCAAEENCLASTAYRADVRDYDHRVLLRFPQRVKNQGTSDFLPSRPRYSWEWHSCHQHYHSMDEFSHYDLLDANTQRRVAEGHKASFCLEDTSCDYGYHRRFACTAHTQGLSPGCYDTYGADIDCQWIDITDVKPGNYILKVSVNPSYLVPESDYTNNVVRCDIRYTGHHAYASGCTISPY
The experiment in a line: Lysyl oxidase enzymatic activity, fluorescence-based assay, IC50. The class given is biochemical. The source says: Data are presented as mean ± s.d. […] Data presented as mean ± s.d. […] Source data TEXT PRINTED IN THE PICTURE: (b) PXS-5505: Recombinant DAO IC50 (nM): >30,000; Recombinant SSAO/VAP1 IC50 (nM): >30,000; Recombinant MAO-A IC50 (nM): >30,000; Recombinant MAO-B IC50 (nM): >30,000 | (f) PXS-5505: Fibroblast LOX IC50 (nM): 4,930; Recombinant LOXL-1 IC50 (nM): 1,590; Recombinant LOXL-2 IC50 (nM): 570; Recombinant LOXL-3 IC50 (nM): 1,800; Recombinant LOXL-4 IC50 (nM): 190
In characterizing PXS-5505, the half-maximum inhibitory concentration (IC50) values for each of the lysyl oxidase family members were determined by measuring enzymatic activity using a fluorescence-based assay.
Data presented as mean values +/− SD. f. […] Data presented as mean values +/− SD. […] Data presented as mean values +/− SD. […] Data presented as mean values +/− SD. Ordinary one-way ANOVA for multiple comparison test performed. Source data

On to `Nc1ccn([C@@H]2O[C@H](CO)[C@@H](O)C2(F)F)c(=O)n1` [Gem, gemcitabine], for which the “Ki67 positive tumor cells” value in the test on Ki67 was “significantly decreasing the number of Ki67 positive tumor cells”.

The compound `Cl.Cl.NC/C=C(\F)CS(=O)(=O)c1cccc2cccnc12.O` [PXS-5505, (Z)-3-fluoro-4-(quinolin-8-ylsulfonyl)but-2-en-1-amine dihydrochloride monohydrate] came in with an IC50 against Fibroblast LOX of 4.93 µM. In addition, the “LOX activity, IC50 determination curve” value at Fibroblast LOX (log(Concentration) -4.52288, replicates, 30 µM) is -1.8303 and 0.6579 and 0.3247; at Fibroblast LOX (log(Concentration) -5, replicates, 10 µM), 3.883 and 10.1684 and 20.9265 and 5.02 and 4.758 and 6.391 and 6.186 and 6.029 and 20.5369 and 17.2584 and 29.8226 and 3.623 and 26.5163 and 8.055 and 5.279 and 6.036 and 3.683 and 8.994 and 2.62 and 5.888; at Fibroblast LOX (log(Concentration) -5.47712, replicates, 3.333 µM), 26.3616 and 38.5547 and 37.4589 and 30.4803 and 26.5908 and 26.0097 and 25.4086 and 23.2841 and 47.0211 and 41.5569 and 54.9662 and 30.9927 and 55.9602 and 33.6452 and 26.0055 and 25.2076 and 21.7888 and 33.3569 and 26.6311 and 45.3445; at Fibroblast LOX (log(Concentration) -5.95424, replicates, 1.111 µM), 65.9487 and 69.3911 and 60.7313 and 65.7321 and 64.7348 and 60.684 and 73.4741 and 69.7585 and 72.3228 and 61.8434 and 76.5191 and 70.4394 and 64.4999 and 59.1047 and 54.3417 and 66.355 and 58.9798 and 55.4122; at Fibroblast LOX (log(Concentration) -6.43136, replicates, 0.3704 µM) it was 87.2177 and 88.3395 and 79.2811 and 66.9609 and 65.4146 and 85.3577 and 83.5816 and 83.3016 and 85.8139 and 85.7077 and 63.7427 and 87.2402 and 81.0139 and 93.5693 and 81.2357 and 80.2494 and 78.0142 and 85.6866 and 82.1322 and 88.2018; at Fibroblast LOX (log(Concentration) -6.90849, replicates, 0.1235 µM), 96.5523 and 90.6919 and 85.8494 and 82.293 and 94.8665 and 94.3951 and 93.9784 and 95.943 and 87.9121 and 85.7594 and 95.8669 and 88.1459 and 102.086 and 95.1473 and 93.948 and 87.9189 and 98.6889 and 90.9023 and 91.7994. On Fibroblast LOX (read-out: LOX activity, IC50 determination curve, log(Concentration) -6.90849, replicates), the activity at 0.1235 µM came to 99.8%. Further, the activity at 0.01372 µM on Fibroblast LOX (read-out: LOX activity, IC50 determination curve, log(Concentration) -7.86273, replicates) was determined as 104%. Moreover, at Fibroblast LOX (read-out: LOX activity, IC50 determination curve, log(Concentration) -8.33985, replicates), the activity at 0.004572 µM came out at 102%. On Fibroblast LOX (read-out: LOX activity, IC50 determination curve, log(Concentration) -8.81697, replicates), the activity at 0.001524 µM turned out to be 108%. In addition, the activity at 0.000508 µM at Fibroblast LOX (read-out: LOX activity, IC50 determination curve, log(Concentration) -9.29409, replicates) was 105%.

As a reminder, the IC50 is the concentration that gives 50% inhibition.
